Test system: HCV genotype-1a variant with glutamine 30 changed to glutamate in the NS5A protein
Type: cell-based
Details: test compound titrated with BMS-790052 fixed at 200 nM; genotype 1a Q30E replicon
Outline: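 Synergy was assessed by combining several fixed amounts of an NS5A-targeting compound with a titration of the second compound of interest.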

| Compound | Fold-Synergistic 1a (Q30E) [fold] |
| --- | --- |
| Cc1cc(-c2ccc(-c3c[nH]c([C@@H](NC(=O)C(C)(C)C)C(C)(C)C)n3)cc2)ccc1-c1c[nH]c([C@@H](NC(=O)C(C)(C)C)C(C)(C)C)n1.O=C(O)C(F)(F)F [Compound N-86] | >100 |
| CO[C@@H](C(=O)N[C@H](c1ncc(-c2ccc(-c3ccc(-c4cnc([C@@H](NC(=O)[C@H](OC)c5ccccc5)C(C)C)[nH]4)cc3)cc2)[nH]1)C(C)C)c1ccccc1 [Compound P-75] | >100 |
| CC(C)(C)[C@H](NC(=O)C1(C2(O)CCC(F)(F)CC2)CC1)c1nc(-c2ccc(-c3ccc(-c4c[nH]c([C@@H](NC(=O)C5(C6(O)CCC(F)(F)CC6)CC5)C(C)(C)C)n4)cc3)cc2)c[nH]1 [Compound P-146] | >100 |
| COC(=O)NC(C(=O)N1CCCC1c1ncc(-c2ccc(-c3ccc(-c4cnc(C(NC(=O)C5(C)CCC(F)(F)CO5)C(C)(C)C)[nH]4)cc3)cc2)[nH]1)C(C)C (stereo not drawn) [Compound B-193] | >10 |
| CC(C)(C)C(NC(=O)C1COC(=O)N1)c1nc(-c2ccc(-c3ccc(-c4c[nH]c(C(NC(=O)C5COC(=O)N5)C(C)(C)C)n4)cc3)cc2)c[nH]1.O=C(O)C(F)(F)F.O=C(O)C(F)(F)F [Compound L-9] | >10 |
| Cc1cccc(CC(=O)N[C@H](c2ncc(-c3ccc(-c4ccc(-c5cnc([C@@H](NC(=O)Cc6cccc(C)c6)C(C)C)[nH]5)cc4)cc3)[nH]2)C(C)C)c1 [Compound S-41] | >10 |
| CC(C)[C@H](NC(=O)c1cccc(Cl)c1)c1ncc(-c2ccc(-c3ccc(-c4cnc([C@@H](NC(=O)c5cccc(Cl)c5)C(C)(C)C)[nH]4)cc3)cc2)[nH]1 [Compound Y-46] | >100 |
| CC(C)[C@H](NC(=O)C1CCC(F)(F)CC1)c1ncc(-c2ccc3cc4cc(-c5cnc([C@@H](NC(=O)C6CCC(F)(F)CC6)C(C)C)[nH]5)ccc4cc3c2)[nH]1.O=C(O)C(F)(F)F [Compound B29] | >100 |
| COC(C)(COCc1ccccc1)C(=O)N[C@H](c1nc(-c2ccc(-c3ccc(-c4c[nH]c([C@@H](NC(=O)C(C)(COCc5ccccc5)OC)C(C)(C)C)n4)cc3)cc2)c[nH]1)C(C)(C)C.O=C(O)C(F)(F)F.O=C(O)C(F)(F)F (single isomer, unassigned) [Compound W-231] | >100 |
| COc1ccccc1C(O)CC(=O)N[C@H](c1nc(-c2ccc(-c3ccc(-c4c[nH]c([C@@H](NC(=O)C5(C(O)c6ccccc6OC)CC5)C(C)(C)C)n4)cc3)cc2)c[nH]1)C(C)(C)C (single isomer, unassigned) [Compound N-135A] | >100 |
| CC(C)(C)[C@H](NC(=O)C1(C2(O)CCC(F)(F)CC2)CC1)c1ncc(C#Cc2ccc3cc(-c4cnc([C@@H](NC(=O)C5(C6(O)CCC(F)(F)CC6)CC5)C(C)(C)C)[nH]4)ccc3c2)[nH]1 [Compound B5B] | >100 |
| CC(C)[C@H](NC(=O)c1ccc(C(F)(F)F)nc1)c1ncc(-c2ccc(-c3ccc(-c4cnc([C@@H](NC(=O)C(C)(C)C)C(C)C)[nH]4)cc3)cc2)[nH]1 [Compound Y-53] | >100 |
| CC(C)(C(=O)N[C@H](c1nc(-c2ccc(-c3ccc(-c4c[nH]c([C@@H](NC(=O)C(C)(C)C(O)C5CCC(F)(F)CC5)C(C)(C)C)n4)cc3)cc2)c[nH]1)C(C)(C)C)C(O)C1CCC(F)(F)CC1 (single isomer, unassigned) [Compound N-143A] | >100 |
| CC(C)[C@H](NC(=O)c1nccn1C)c1ncc(-c2ccc(-c3ccc(-c4cnc([C@@H](NC(=O)c5nccn5C)C(C)C)[nH]4)cc3)cc2)[nH]1 [Compound S-105] | <10 |
| CC(C)[C@H](NC(=O)c1cc(Cl)ccc1F)c1nc(-c2ccc(-c3ccc(-c4c[nH]c([C@@H](NC(=O)c5cc(Cl)ccc5F)C(C)C)n4)cc3F)cc2)c[nH]1.O=C(O)C(F)(F)F [Compound N-99] | >100 |
